Source: patent publication US7662404B2, “Transdermal delivery system for dried particulate or lyophilized peptides and polypeptides” (TransPharma Medical Ltd., priority 2002, dated 2010)
Like-named read-outs stand apart in the source and are kept apart here.

Test: Plasma hPTH (1-34) in pigs as a function of patch application time (Example 14)
Type: in vivo
Settings: male, large white, pig; for Cmax: read-out: Cmax AVG ± SD; for F rel: topical or ocular, compared to SC, read-out: % BIO AVG ± SD
Method: A printed patch containing 90 μg of hPTH (1-34) was placed over the application area and covered with Tegaderm. The patch was removed 1 hour, 1.5 hours, 2 hours or 8 hours after application, and the skin site was gently wiped to remove residual peptide. As a control group, pigs were injected s.c. with 0.2 ml FORTEO® (hPTH (1-34) purchased from Ely Lilly, Indianapolis, Ind., USA; 250 μg/ml) diluted to 100 μg/ml in the dorsal neck area (final dose was 20 μg per animal). Formulation: hPTH (1-34) (10 mg/ml): Trehalose (110 mg/ml) in 50 mM acetic acid, pH=4.
To determine the amount of hPTH(1-34) delivered to the blood of the treated pigs, blood samples were withdrawn at the indicated time points and the amount of hPTH(1-34) was measured by an ELISA kit (Immutopics, San-Clemente, Calif.).

CC[C@H](C)[C@H](NC(=O)[C@H](CCC(=O)O)NC(=O)[C@H](CO)NC(=O)[C@@H](NC(=O)[C@@H](N)CO)C(C)C)C(=O)N[C@@H](CCC(N)=O)C(=O)N[C@@H](CC(C)C)C(=O)N[C@@H](CCSC)C(=O)N[C@@H](Cc1cnc[nH]1)C(=O)N[C@@H](CC(N)=O)C(=O)N[C@@H](CC(C)C)C(=O)NCC(=O)N[C@@H](CCCCN)C(=O)N[C@@H](Cc1cnc[nH]1)C(=O)N[C@@H](CC(C)C)C(=O)N[C@@H](CC(N)=O)C(=O)N[C@@H](CO)C(=O)N[C@@H](CCSC)C(=O)N[C@@H](CCC(=O)O)C(=O)N[C@@H](CCCN=C(N)N)C(=O)N[C@H](C(=O)N[C@@H](CCC(=O)O)C(=O)N[C@@H](Cc1c[nH]c2ccccc12)C(=O)N[C@@H](CC(C)C)C(=O)N[C@@H](CCCN=C(N)N)C(=O)N[C@@H](CCCCN)C(=O)N[C@@H](CCCCN)C(=O)N[C@@H](CC(C)C)C(=O)N[C@@H](CCC(N)=O)C(=O)N[C@@H](CC(=O)O)C(=O)N[C@H](C(=O)N[C@@H](Cc1cnc[nH]1)C(=O)N[C@@H](CC(N)=O)C(=O)N[C@@H](Cc1ccccc1)C(=O)O)C(C)C)C(C)C [hPTH (1-34)] showed a Cmax (90 ug, TD 90 ug printed patch, removed after 1 h) of 0.0772 ± 0.0358 ng/mL, a Cmax (90 ug, TD 90 ug printed patch, removed after 1.5 h) of 0.179 ± 0.0658 ng/mL and a Cmax (90 ug, TD 90 ug printed patch, removed after 2 h) of 0.137 ± 0.0431 ng/mL. For the same compound, the Cmax (90 ug, TD 90 ug printed patch, removed after 8 h) was 0.128 ± 0.0524 ng/mL, the AUC (90 ug, TD 90 ug, 1 h) was 0.232 ± 0.0418 ng·h/mL and the AUC (90 ug, TD 90 ug, 1.5 h) was 0.296 ± 0.0716 ng·h/mL. The AUC (90 ug, TD 90 ug, 2 h) was 0.272 ± 0.0545 ng·h/mL, the AUC (90 ug, TD 90 ug, 8 h) was 0.331 ng·h/mL and the AUC (sc, 20 ug, SC 20 ug) was 0.237 ± 0.0273 ng·h/mL. The Cmax (sc, 20 ug, SC 20 ug) was 0.289 ± 0.0525 ng/mL, the F rel (90 ug, TD 90 ug, 1 h) was 22.4 ± 6.97% and the F rel (90 ug, TD 90 ug, 1.5 h) was 28.5 ± 9.36%. It also gave a F rel (90 ug, TD 90 ug, 2 h) of 26.2 ± 8.42% and a F rel (90 ug, TD 90 ug, 8 h) of 31.6 ± 9.03%.
